Assay results as given in US20210205329A1 (The University of North Carolina at Chapel Hill, priority 2018, published 2021).

Tests used:
TLR4/MD-2 complex = target: T1, TLR4/MD-2 complex (Mus musculus, UniProt Q9QUK6); assay: TLR4/MD-2 co-immunoprecipitation in LPS-treated RAW264.7 cells; type: cell-based; settings: 1.0 μM; LPS 1 μg/ml; 24 hrs post-treatment
T1 construct: protein extracts were collected 24 hrs post-treatment and immunoprecipitated with antibody to TLR4; endogenous in cells; host or cells: RAW264.7
T1 sequence (Q9QUK6 26-835): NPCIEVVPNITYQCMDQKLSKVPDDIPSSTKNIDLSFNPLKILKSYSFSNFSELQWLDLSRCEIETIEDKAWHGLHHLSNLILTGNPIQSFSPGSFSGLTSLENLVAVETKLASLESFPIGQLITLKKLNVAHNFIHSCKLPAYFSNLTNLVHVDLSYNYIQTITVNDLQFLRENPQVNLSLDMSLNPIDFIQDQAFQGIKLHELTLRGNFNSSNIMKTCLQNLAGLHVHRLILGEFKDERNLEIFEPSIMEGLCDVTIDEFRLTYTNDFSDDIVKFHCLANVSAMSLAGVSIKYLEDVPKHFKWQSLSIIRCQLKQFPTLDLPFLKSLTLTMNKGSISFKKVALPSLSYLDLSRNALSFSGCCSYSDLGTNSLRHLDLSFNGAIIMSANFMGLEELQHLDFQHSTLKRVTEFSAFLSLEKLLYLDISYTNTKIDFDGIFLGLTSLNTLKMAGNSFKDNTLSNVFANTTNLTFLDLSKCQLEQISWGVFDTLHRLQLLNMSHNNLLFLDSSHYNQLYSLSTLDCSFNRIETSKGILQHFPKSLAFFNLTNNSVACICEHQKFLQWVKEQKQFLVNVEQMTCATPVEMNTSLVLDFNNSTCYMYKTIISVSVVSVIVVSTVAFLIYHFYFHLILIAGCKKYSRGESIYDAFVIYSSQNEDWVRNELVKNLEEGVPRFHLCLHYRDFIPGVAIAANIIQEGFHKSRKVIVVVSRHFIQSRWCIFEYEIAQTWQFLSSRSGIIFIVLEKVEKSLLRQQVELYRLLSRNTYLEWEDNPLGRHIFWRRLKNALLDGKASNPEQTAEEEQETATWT
Experimental: (§1) Co-Immunoprecipitation Assay RAW264.7 cells [treated with LPS (1 μg/ml), 3α,5α-THP (1 μM) or pregnenolone (1 μM)] were exposed to chemical protein crosslinking (Poulopoulos et al, 2009) at 24 hrs post-treatment. Briefly, the cells were incubated (20 min on ice) with 1 mM of the cleavable, membrane-permeable crosslinker DSP (Thermo Fisher Scientific, Cat. #PG82081). Rat VTA homogenates were incubated (20 min on ice) with 200 μM of DSP. The crosslinker was quenched in 1 M Tris buffer (pH 7.5) (to a final concentration of 10-20 mM), and the material was centrifuged at 21,000×g for 15 min. Proteins from the cells were extracted with Pierce IP Lysis Buffer (Thermo Fisher Scientific, Cat. #87787) supplemented with protease and phosphatase inhibitor cocktails (Sigma). Proteins from the VTA were extracted with CelLytic MT (dialyzable mild detergent, bicine and 150 mM NaCl; Sigma Aldrich, St. Louis, Mo., USA, Cat. #C3228) supplemented with protease and phosphatase inhibitor cocktails (Sigma) according to the manufacturers instructions. […]

TLR2/MD-2 interaction = target: T2, TLR2/MD-2 interaction (Mus musculus, UniProt Q9QUN7); assay: TLR2/MD-2 co-immunoprecipitation (negative control) in LPS-treated RAW264.7 cells; type: cell-based; settings: 1.0 μM; LPS 1 μg/ml; 24 hrs post-treatment
T2 construct: endogenous in cells; host or cells: RAW264.7
Experimental: as §1

T2 sequence (Q9QUN7 25-784): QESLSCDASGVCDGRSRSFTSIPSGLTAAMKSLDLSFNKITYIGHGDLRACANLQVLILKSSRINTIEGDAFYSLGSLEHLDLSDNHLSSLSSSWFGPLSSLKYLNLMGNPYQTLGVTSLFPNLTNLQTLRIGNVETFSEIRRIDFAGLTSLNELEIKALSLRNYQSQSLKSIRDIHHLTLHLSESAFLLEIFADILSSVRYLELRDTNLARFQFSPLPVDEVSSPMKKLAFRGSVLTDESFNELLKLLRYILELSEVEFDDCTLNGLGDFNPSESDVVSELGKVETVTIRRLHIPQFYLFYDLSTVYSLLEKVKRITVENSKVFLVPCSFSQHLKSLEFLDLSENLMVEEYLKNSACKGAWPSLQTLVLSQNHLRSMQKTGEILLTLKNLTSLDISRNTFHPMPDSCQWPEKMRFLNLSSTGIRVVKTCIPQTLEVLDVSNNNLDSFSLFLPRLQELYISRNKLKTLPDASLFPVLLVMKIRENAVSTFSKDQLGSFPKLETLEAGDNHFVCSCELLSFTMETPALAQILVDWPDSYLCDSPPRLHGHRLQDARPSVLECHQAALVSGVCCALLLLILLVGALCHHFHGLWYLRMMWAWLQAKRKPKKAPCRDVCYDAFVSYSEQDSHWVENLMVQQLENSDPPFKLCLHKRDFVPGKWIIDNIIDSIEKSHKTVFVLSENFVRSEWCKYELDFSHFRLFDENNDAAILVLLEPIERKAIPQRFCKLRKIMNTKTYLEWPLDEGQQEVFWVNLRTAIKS

SMILES	reduction of MD-2 co-precipitated with TLR4 (TLR4/MD-2 complex)	TLR2/MD-2 co-immunoprecipitation (TLR2/MD-2 interaction)
CC(=O)[C@H]1CC[C@H]2[C@@H]3CC=C4C[C@@H](O)CC[C@]4(C)[C@H]3CC[C@]12C [pregnenolone]	57.2±7.3%	not altered
CC(=O)[C@H]1CC[C@H]2[C@@H]3CC[C@H]4C[C@H](O)CC[C@]4(C)[C@H]3CC[C@]12C [3α,5α-THP, (3α,5α)3-hydroxypregnan-20-one]	45.4±6.9%	not altered
